From article PMC2856764 (Human immunology, 2010) come the findings set out here.

Ends that are not written are not given here. Where only a bound is given, the exact number is not on record here.

Targets include HLA-A*2301 (Homo sapiens, UniProt P04439, D101N/D140Y/D185E/E176V/E190D/F33S/G103R/G107R/H175R/I119L/I121M/I306V/K168Q/K335N/L105A/L300P/N151K/N90K/P307H/Q86E/Q94H/R106L/R138H/R89G/T104I/T345S/V100E/W191G/Y123F); HLA-A*2902 (Homo sapiens, UniProt P04439, A270S/D101N/D185E/E176V/E277Q/E87Q/F33T/G231S/H175R/I121M/I218V/I322F/K168Q/L300P/L318F/M331R/P208A/P217A/Q86L/T323A/T345S/V100A/V358M); HLA-A*2402 (Homo sapiens, UniProt P04439, D101N/D140Y/D185E/E176V/E190D/F33S/G103R/G107R/I119L/I121M/I306V/K335N/L105A/L180Q/L300P/N151K/N90K/Q86E/Q94H/R106L/R138H/R89G/T104I/T345S/V100E/W191G/Y123F); HLA-A*3002 (Homo sapiens, UniProt P04439, D101N/D140H/D185E/E176R/F33S/G80R/H175R/K168Q/Q94H/R138E/R41S/V100E); HLA-B*5401 (Homo sapiens, UniProt P01889, A329T/C349S/D138N/D201E/E176V/E187T/E204Q/E69G/I76V/K202T/L119W/R155S/R180L/S121T/S35A/S48A/V127L/V306I/V36M/Y140L); HLA-B*0702 (Homo sapiens, UniProt P01889); HLA-B*5101 (Homo sapiens, UniProt P01889, A329T/A93T/A95T/C349S/D138N/D201E/D98Y/E187L/E204Q/E69T/G107R/I218V/K202T/L105A/L119W/N104I/Q94N/R106L/R155S/R180L/S101N/S121T/S35A/S48A/V306I/V36M/Y195H/Y91F); HLA-B*5301 (Homo sapiens, UniProt P01889, A329T/A93T/A95T/C349S/D201E/D98Y/E176V/E187L/E204Q/E69T/G107R/I218V/K202T/L105A/L119I/N104I/Q94N/R106L/R155S/R180L/S101N/S121R/S35A/S48A/T118I/V127L/V306I/V36M/Y140S/Y91F); HLA-B*3501 (Homo sapiens, UniProt P01889, A329T/A93T/A95T/C349S/D201E/D98Y/E176V/E187L/E204Q/E69T/I218V/K202T/L119I/Q94N/R155S/R180L/S121R/S35A/S48A/T118I/V127L/V306I/V36M/Y140S/Y91F); HLA-A*2601 (Homo sapiens, UniProt P04439, A114D/A173T/A270S/D101N/D185E/E277Q/E87N/F33Y/G231S/I121R/I218V/K168Q/L180W/L300P/L318F/P208A/P217A/Q86R/Q94H/R138Q/S129P/T187R/T323A/T345S/V100A/V358M); HLA-A*0101 (Homo sapiens, UniProt P04439, A114D/A174V/A182V/D101N/D185E/E176A/E190D/L180R/Q94H/R68K/S129P/T187R/V100A/V91M/W191G).

What all share (test): biochemical
Assay type in all cases: binding

The IC50 is the midpoint of a concentration-inhibition curve. The low end stands for inhibition by little substance, the high end for a need for much substance. Regarding FYIQMCTEL [NP.39], the IC50 was 8 nM on HLA-A*2301, 1560 nM at HLA-A*2902, 24 nM at HLA-A*2402 and greater than 10000 nM on HLA-A*3002.
For FYRYGFVANF [PB1.496] the same measures were 13 nM, 812 nM, 17 nM and greater than 10000 nM.
For the sequence LPRRSGAAGA [NP.172], the half-maximal inhibitory concentration (IC50) at HLA-B*5401 is 47 nM; against HLA-B*0702 it was 2 nM; against HLA-B*5101 it was greater than 10 µM; on HLA-B*5301 it was greater than 10 µM; against HLA-B*3501 it was greater than 10 µM.
For the sequence LVSDGGPNLY [PB1.590], the IC50 at HLA-A*2902 is 479 nM; against HLA-A*3002, 57 nM; against HLA-A*2601, 156 nM; against HLA-A*0101, 399 nM.
For YSHGTGTGY [PB1.30] the same measures were 486 nM, 131 nM, 5 nM and 199 nM.
